Results reported in publication PMC4706797 (Journal of pharmaceutical sciences, 2015).

What was measured:
[1] = system: triple negative breast cancer (TNBC) cell lines; assay: Cytotoxicity in TNBC cell lines; assay type: cell-based
[2] = oral co-administration with the taxane; cited from earlier work
cyclin D1 = assay: Western blot, cyclin D1 expression in MDA-MB-231 cells; assay type: cell-based; details: MDA-MB-231, DTX 0.1 μM and/or 1 μM PPL, 48 hr, densitometry
HCC1806 = assay: Cytotoxicity assay; assay type: cell-based; details: Homo sapiens, HCC1806, 48 h, read-out: IC50 (μM) DTX only
Bcl-2 = assay: Western blot, Bcl-2 expression in MDA-MB-231 cells; assay type: cell-based; details: MDA-MB-231, DTX 0.1 μM and/or 1 μM PPL, 48 hr, densitometry
[3] = In vivo pharmacokinetic in rats; parameters: species or system Sprague Dawley rats
MDA-MB-231 = assay: Cytotoxicity assay; assay type: cell-based; details: Homo sapiens, MDA-MB-231, 48 h, read-out: IC50 (μM) DTX only
MDA-MB-468 = assay: Cytotoxicity assay; assay type: cell-based; details: Homo sapiens, MDA-MB-468, 48 h, read-out: IC50 (μM) DTX only
p53 = assay: Western blot, p53 expression in MDA-MB-231 cells; assay type: cell-based; details: MDA-MB-231, DTX 0.1 μM and/or 1 μM PPL, 48 hr, densitometry
HS578T = assay: Cytotoxicity assay; assay type: cell-based; details: Homo sapiens, Hs-578T, 48 h, read-out: IC50 (μM) DTX only
MDA-MB-231 cells = assay: In vitro migration; assay type: cell-based
survivin = assay: Western blot, survivin expression in MDA-MB-231 cells; assay type: cell-based; details: MDA-MB-231, DTX 0.1 μM and/or 1 μM PPL, 48 hr, densitometry
HCC70 = assay: Cytotoxicity assay; assay type: cell-based; details: Homo sapiens, HCC70, 48 h, read-out: IC50 (μM) DTX only
CYP3A4 = details: 50 μM PPL or CYA, 5 μM TST, human liver microsomes, over 60 min
P-gp = P-gp (Homo sapiens, UniProt P08183); assay: Caco-2 uptake study of P-gp substrates; details: Caco-2 cells, 50 μM PPL or verapamil
Sequence of P-gp (P08183 whole entry): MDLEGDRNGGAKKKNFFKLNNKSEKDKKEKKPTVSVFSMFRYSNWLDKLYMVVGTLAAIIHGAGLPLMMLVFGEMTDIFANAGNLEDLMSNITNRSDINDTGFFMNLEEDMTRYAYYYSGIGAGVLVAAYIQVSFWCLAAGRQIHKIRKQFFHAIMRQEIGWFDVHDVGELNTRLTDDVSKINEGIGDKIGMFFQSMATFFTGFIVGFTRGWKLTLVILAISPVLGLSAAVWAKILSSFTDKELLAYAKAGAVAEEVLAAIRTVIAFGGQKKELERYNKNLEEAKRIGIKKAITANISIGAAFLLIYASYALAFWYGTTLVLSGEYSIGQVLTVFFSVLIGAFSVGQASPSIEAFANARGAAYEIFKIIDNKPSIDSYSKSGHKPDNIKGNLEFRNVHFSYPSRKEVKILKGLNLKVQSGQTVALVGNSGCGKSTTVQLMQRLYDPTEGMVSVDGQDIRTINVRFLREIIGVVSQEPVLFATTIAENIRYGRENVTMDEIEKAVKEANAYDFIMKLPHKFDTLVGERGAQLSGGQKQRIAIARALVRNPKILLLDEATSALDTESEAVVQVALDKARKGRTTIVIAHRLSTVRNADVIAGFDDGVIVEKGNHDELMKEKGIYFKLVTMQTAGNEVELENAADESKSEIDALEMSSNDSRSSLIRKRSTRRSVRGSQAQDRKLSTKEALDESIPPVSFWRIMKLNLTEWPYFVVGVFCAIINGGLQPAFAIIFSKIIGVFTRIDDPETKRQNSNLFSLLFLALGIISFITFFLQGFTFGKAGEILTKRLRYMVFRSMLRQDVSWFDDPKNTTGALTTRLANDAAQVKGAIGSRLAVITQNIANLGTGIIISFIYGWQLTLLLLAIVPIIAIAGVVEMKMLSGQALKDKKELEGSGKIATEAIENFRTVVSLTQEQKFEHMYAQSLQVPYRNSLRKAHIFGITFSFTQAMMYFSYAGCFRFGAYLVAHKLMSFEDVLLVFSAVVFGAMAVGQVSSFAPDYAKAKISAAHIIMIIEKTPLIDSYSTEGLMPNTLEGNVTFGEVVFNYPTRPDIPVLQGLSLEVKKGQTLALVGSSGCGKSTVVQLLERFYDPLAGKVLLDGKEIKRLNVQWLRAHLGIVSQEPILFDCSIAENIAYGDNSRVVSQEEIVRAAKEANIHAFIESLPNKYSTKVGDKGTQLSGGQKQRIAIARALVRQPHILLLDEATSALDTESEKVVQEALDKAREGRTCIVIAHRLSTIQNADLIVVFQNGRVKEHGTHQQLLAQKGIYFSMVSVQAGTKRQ

[4] = Sprague Dawley, rat, plasma, iv, 5 mg/kg

O=C(/C=C/C=C/c1ccc2c(c1)OCO2)N1CCCCC1 [piperine]
anticancer and synergistic effect with docetaxel ([1]; in vitro studies, data not shown): did not show potent anticancer and synergistic effect

CC(C)c1nc(CN(C)C(=O)N[C@H](C(=O)N[C@@H](Cc2ccccc2)C[C@H](O)[C@H](Cc2ccccc2)NC(=O)OCc2cncs2)C(C)C)cs1 [ritonavir]
increase in plasma concentrations of docetaxel [2]: 7.3 fold | increase in plasma concentrations of paclitaxel [2]: 2.5 fold

CC(=O)O[C@@]12CO[C@@H]1C[C@H](O)[C@@]1(C)C(=O)[C@H](O)C3=C(C)[C@@H](OC(=O)[C@H](O)[C@@H](NC(=O)OC(C)(C)C)c4ccccc4)C[C@@](O)([C@@H](OC(=O)c4ccccc4)[C@H]21)C3(C)C [DTX, Docetaxel]
cyclin D1 relative expression reduced compared to untreated control (cyclin D1): 0.8 fold | IC50 (HCC1806): 0.0022 ± 0.001 µM | Bcl-2 expression reduced compared to untreated control (Bcl-2): 2.59 fold | Absolute BA ([3]; SD rats, oral DTX 10 mg/kg (PPL 50 mg/kg where co-administered) vs IV 5 mg/kg): 9.26% | time after which DTX plasma concentration was non-detectable ([3]; SD rats, oral administration): 8 h | AUC [3, 4]: 5290 ± 1100 ng·h/mL | Cmax [3, 4]: 6100 ± 1700 ng/mL | MRT [3, 4]: 1.99 ± 0.36 h | half-life [3, 4]: 6.67 ± 1.6 h | IC50 (MDA-MB-231): 0.458 ± 0.081 µM | IC50 (MDA-MB-468): 0.36 ± 0.069 µM | increase in expression of p53 compared to untreated control (p53): 1.2 fold | IC50 (HS578T): 0.077 ± 0.013 µM | percent bridging of scratch area (MDA-MB-231 cells; MDA-MB-231, 48 h, 0.1 μM DTX (combination with 1 μM PPL)): 49.3% | percent bridging of scratch area (MDA-MB-231 cells; MDA-MB-231, 48 h, 0.4 μM DTX (combination with 1 μM PPL)): 33.8% | survivin expression down regulated compared to control (survivin): 1.03 fold | IC50 (HCC70): 0.019 ± 0.008 µM

COc1cc(/C=C/C(=O)N2CCC=CC2=O)cc(OC)c1OC [PPL, Piperlongumine]
cyclin D1 relative expression reduced compared to untreated control (cyclin D1): 2.10 fold | reduction in TST metabolism (CYP3A4): ~50% | Bcl-2 expression reduced compared to untreated control (Bcl-2): 2.74 fold | increase in expression of p53 compared to untreated control (p53): 1.1 fold | percent bridging of migration area (MDA-MB-231 cells; MDA-MB-231, 48 h, 1 μM PPL alone): comparable to control | anti-migration effect (MDA-MB-231 cells; PPL at concentration below 4 μM): no anti-migration effect | survivin expression down regulated compared to control (survivin): 1.19 fold | cytotoxicity ([1]; PPL at 1 μM): no cytotoxcity | cell killing ([1]; PPL below 4 μM): not shown a significant cell killing | intracellular uptake of R123 (green fluorescence intensity) (P-gp; 1 μM rhodamine 123, 90 min, qualitative): green fluorescence intensity was higher | higher intracellular accumulation (uptake) of DTX (P-gp; 5 μM DTX, 90 min): 1.34 fold
